Assay: Solubility of the amphiphilic compound in the first liquid perfluoroperhydrophenanthrene (C14F24)
Settings: for solubility: perfluoroperhydrophenanthrene (C14F24), organic solvent or mixture

| solubility [µM] | Compound | Solubility in C14F24 (in perfluoroperhydrophenanthrene (C14F24, CAS 306-91-2), bound is the detection limit) |
| --- | --- | --- |
| < 10 | CCCCCCCCCCCCCCCC(=O)OC[C@H](COP(=O)([O-])OCC[N+](C)(C)C)OC(=O)CCCCCCCCCCCCCCC [DPPC, dipalmitoylphosphatidylcholine] |  |
|  | CCCCCCCCCCCCCCCCCC(=O)OC[C@H](COP(=O)([O-])OCC[N+](C)(C)C)OC(=O)CCCCCCCCCCCCCCCCC [DSPC, distearoylphosphatidylcholine] | < 10^−5 mol/l |
| < 10 | CC(C)CCC[C@@H](C)[C@H]1CC[C@H]2[C@@H]3CC=C4C[C@@H](O)CC[C@]4(C)[C@H]3CC[C@]12C [cholesterol] |  |
